Where two headings read alike, the source gives them in different places.
Key:
[1] = target: Cys242 in human PIK3CA (157-299) (Homo sapiens (Human), UniProt P42336); experiment: Covalent modification assay using MALDI-TOF MS; type: biochemical; details: 4 h reaction time point
Summary of the method: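 PIK3CA (157-299) at 3.33 μM or 1 μM in 20 mM HEPES, 150 mM NaCl, 2 mM MgCl2, pH 7.3 was incubated with compound (from 10 mM DMSO stocks) in the dark at room temperature for 15 min, 30 min, 2 h or 4 h. Linear-mode MALDI-TOF peak heights gave percent modification.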

pAKT in BT474 cells = experiment: Cell-based pAKT HTRF assay in BT474 cells; details: BT474 cells, 4 hr incubation, read-out: pAKT inhibition IC50 in BT474 cells
Summary of the method: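 Treatment lasts 4 hr in DMEM/10% FBS at 0.25% DMSO over nine 3-fold dilutions from 3 μM. The lysate is then probed by HTRF.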

[2] = 3.33 μM protein target, 1:7.5 protein to compound ratio (compounds 1-852)
[3] = Homo sapiens, BT-474, Compounds 10-999
[4] = 1 μM protein target, 1:5 protein to compound ratio (compounds 853-1279)

Sequence of Cys242 in human PIK3CA (157-299) (P42336 157-299): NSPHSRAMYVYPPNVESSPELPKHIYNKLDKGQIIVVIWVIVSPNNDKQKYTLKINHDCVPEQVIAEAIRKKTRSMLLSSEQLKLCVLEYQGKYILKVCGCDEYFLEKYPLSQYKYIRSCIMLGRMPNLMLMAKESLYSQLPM

SMILES | % of modification [1, 2] | IC50 (pAKT in BT474 cells; Compounds 10-999) | IC50 (pAKT in BT474 cells; [3]) | % of modification [1, 4] | IC50 (pAKT in BT474 cells; Compounds 1000-1279)
C=CC(=O)N1CC(n2cc(-c3nc(N4CC5(CCNCC5)CC4=O)c4ccsc4c3-c3ccc(F)cc3OCCOC)cn2)C1 [Compound 106] | C (25%≤percent of modification <50%) | > 3000 nM |  |  | 
C=CC(=O)N1[C@H](C)Cn2nc(-c3nc(-c4ccc5c(c4)CCN(C)C5)c4ccsc4c3-c3c(F)cc(F)cc3OCCOC)cc2[C@@H]1C [Compound 480, 1-((4S,6R)-2-(7-(2,4-difluoro-6-(2-methoxyethoxy)phenyl)-4-(2-methyl-1,2,3,4-tetrahydroisoquinolin-6-yl)thieno[3,2-c]pyridin-6-yl)-4,6-dimethyl-6,7-dihydropyrazolo[1,5-a]pyrazin-5(4H)-yl)prop-2-en-1-one] | A (percent of modification of PIK3CA protein ≥75%) |  | < 100 nM |  | 
C=CC(=O)N1CCc2ncc(-c3nc(-c4cncc(Cl)c4)c4ccsc4c3-c3c(F)cc(F)cc3OCCOC)cc2C1 [Compound 377] | A (percent of modification of PIK3CA protein ≥75%) | < 100 nM |  |  | 
C=CC(=O)N1Cc2cc(-c3nc(-c4ccn(C)n4)c4ccsc4c3-c3c(F)cc(F)cc3OCCOC)nn2C[C@H]1C [Compound 722] | A (percent of modification of PIK3CA protein ≥75%) | < 100 nM |  |  | 
C=CC(=O)N1CCc2nc(-c3nc(-c4cnc5c(c4)CN(C)CC5)c4ccsc4c3-c3c(F)cc(F)cc3OCCOC)sc2C1 [Compound 365] | A (percent of modification of PIK3CA protein ≥75%) | < 100 nM |  |  | 
C=CC(=O)N1CCn2nc(-c3nc(-c4ccc5cnn(C)c5c4)c4ccsc4c3-c3c(F)cc(F)cc3OCCO)cc2[C@H]1C [Compound 776] | A (percent of modification of PIK3CA protein ≥75%) | < 100 nM |  |  | 
C=CC(=O)N1CCC(c2cc(-c3nc(-c4ccc5c(c4)CCNC5)c4ccsc4c3-c3ccc(F)cc3OCCOC)c[nH]c2=O)C1 (centres unmarked) [Compound 70, 5-[7-[4-fluoro-2-(2-methoxyethoxy)phenyl]-4-(1,2,3,4-tetrahydroisoquinolin-6-yl)thieno[3,2-c]pyridin-6-yl]-3-(1-prop-2-enoylpyrrolidin-3-yl)-1H-pyridin-2-one] | A (percent of modification of PIK3CA protein ≥75%) |  | 100 to 1000 nM |  | 
C=CC(=O)N1CC(n2cc(-c3nc(N4CC5(CCNCC5)C4)c4ccsc4c3-c3ccc(F)cc3OCCOC)cn2)C1 [Compound 138] | A (percent of modification of PIK3CA protein ≥75%) | 100 to 1000 nM |  |  | 
C=CC(=O)N1CCn2nc(-c3nc(-c4ccc5c(c4)CNC5=O)c4ccsc4c3-c3c(F)cc(F)cc3OCCOC)cc2[C@@H]1C [Compound 545] | A (percent of modification of PIK3CA protein ≥75%) | < 100 nM |  |  | 
C=CC(=O)N1CCc2ncc(-c3nc(-c4ccn(C(F)F)c(=O)c4)c4ccsc4c3-c3c(F)cc(F)cc3OC(C)C)cc2C1 [Compound 359] | A (percent of modification of PIK3CA protein ≥75%) | < 100 nM |  |  | 
C=CC(=O)N1CCn2nc(-c3nc(-c4ccc(=O)n(C)c4)c4ccsc4c3-c3ccc(F)cc3OCCOC)nc2C1 [Compound 205] | A (percent of modification of PIK3CA protein ≥75%) | < 100 nM |  |  | 
C=CC(=O)N1CC(n2cc(-c3nc(-c4ccc5c(c4)CCNC5)c4ncsc4c3-c3ccc(F)cc3OC)cn2)C1 [Compound 104, 1-[3-[4-[7-(4-fluoro-2-methoxy-phenyl)-4-(1,2,3,4-tetrahydroisoquinolin-6-yl)thiazolo[4,5-c]pyridin-6-yl]pyrazol-1-yl]azetidin-1-yl]prop-2-en-1-one] | A (percent of modification of PIK3CA protein ≥75%) |  | 100 to 1000 nM |  | 
C=CC(=O)N1CCn2nc(-c3nc(-c4ccc5c(cnn5C)c4)c4ccsc4c3-c3c(F)cc(F)cc3OCCOC)cc2[C@H]1C [Compound 758, 1-((R)-2-((S)-7-(2,4-difluoro-6-(2-methoxyethoxy)phenyl)-4-(1-methyl-1H-indazol-5-yl)thieno[3,2-c]pyridin-6-yl)-4-methyl-6,7-dihydropyrazolo[1,5-a]pyrazin-5(4H)-yl)prop-2-en-1-one] | A (percent of modification of PIK3CA protein ≥75%) | < 100 nM |  |  | 
C=CC(=O)N1CCn2nc(-c3nc(-c4ccc(=O)n(C(C)C)c4)c4ccsc4c3-c3c(F)cc(F)cc3OCCO)cc2[C@H]1C [Compound 980] |  | < 100 nM |  | A (percent of modification of PIK3CA protein ≥75%) | 
C=CC(=O)N1CCn2nc(-c3nc(-c4ccc(CN5CC(F)(F)C5)nc4)c4ccsc4c3-c3c(F)cc(F)cc3OCCOC)cc2[C@H]1C [Compound 529] | A (percent of modification of PIK3CA protein ≥75%) | < 100 nM |  |  | 
C=CC(=O)N1CCC(n2cc(-c3nc(-c4ccc5c(c4)CCNC5)c4ccsc4c3-c3ccc(F)cc3OCCOC)ccc2=O)CC1 [Compound 181] | A (percent of modification of PIK3CA protein ≥75%) | 100 to 1000 nM |  |  | 

SMILES | % of modification [1, 2] | IC50 (pAKT in BT474 cells; Compounds 10-999) | IC50 (pAKT in BT474 cells; [3]) | % of modification [1, 4] | IC50 (pAKT in BT474 cells; Compounds 1000-1279)
C=CC(=O)N1Cc2cc(-c3nc(-c4nc(C)no4)c4ccsc4c3-c3c(F)cc(F)cc3OCCOC)nn2C[C@H]1C [Compound 822] | A (percent of modification of PIK3CA protein ≥75%) | < 100 nM |  |  | 
C=CC(=O)N1CCn2nc(-c3nc(C4CCN(C(C)C)CC4)c4ccsc4c3-c3ccc(F)cc3OCCOC)cc2C1 [Compound 220] | A (percent of modification of PIK3CA protein ≥75%) | < 100 nM |  |  | 
C=CC(=O)N1CCn2nc(-c3nc(-c4ccc5c(c4)CCN(C(C)C)C5)c4ccsc4c3-c3ccc(F)cc3OCC3CCNC(=O)C3)cc2C1 (centres unmarked) [Compound 254] | A (percent of modification of PIK3CA protein ≥75%) | < 100 nM |  |  | 
C=CC(=O)N1CCc2ncc(-c3nc(-c4ccc5c(c4)CN(C)C5=O)c4ccsc4c3-c3c(F)cc(F)cc3OC(C)C)cc2C1 [Compound 407] | A (percent of modification of PIK3CA protein ≥75%) | < 100 nM |  |  | 
C=CC(=O)N1CC(n2cc(-c3nc(-c4ccc5c(c4)CCNC5)c4ccsc4c3-c3cccc(=O)n3CCOC)cn2)C1 [Compound 170] | D (percent of modification <25%) | 1000 to 3000 nM |  |  | 
C=C(F)C(=O)N1CCn2nc(-c3nc(-c4ccc5c(c4)CCNC5=O)c4ccsc4c3-c3ccc(F)cc3OCC)cc2C1 [Compound 304] | B (50%<percent of modification <75%) | 100 to 1000 nM |  |  | 
C=CC(=O)N1CCn2nc(-c3nc(-c4cncc(OC5CN(C)C5)c4)c4ccsc4c3-c3c(F)cc(F)cc3OCCOC)cc2C1C (centres unmarked) [Compound 1203] |  |  |  | A (percent of modification of PIK3CA protein ≥75%) | < 100 nM
C=CC(=O)N1CCc2nc(-c3nc(-c4ccc5c(c4)CCNC5)c4ccsc4c3-c3ccc(F)cc3OCC3CCNC(=O)C3)sc2C1 (centres unmarked) [Compound 182] | A (percent of modification of PIK3CA protein ≥75%) | < 100 nM |  |  | 
C=CC(=O)N1CCn2nc(-c3nc(-c4ccc5c(c4)C(=O)NC5)c4ccsc4c3-c3c(F)cc(F)cc3OCCO)cc2[C@H]1C [Compound 852, 6-((S)-6-((R)-5-acryloyl-4-methyl-4,5,6,7-tetrahydropyrazolo[1,5-a]pyrazin-2-yl)-7-(2,4-difluoro-6-(2-hydroxyethoxy)phenyl)thieno[3,2-c]pyridin-4-yl)isoindolin-1-one] | A (percent of modification of PIK3CA protein ≥75%) |  | < 100 nM |  | 
C=CC(=O)N1CCn2nc(-c3nc(-c4cc5c(cc4OC)C(=O)NC5)c4ccsc4c3-c3c(F)cc(F)cc3OCCO)cc2C1C (centres unmarked) [Compound 1072] |  |  |  | A (percent of modification of PIK3CA protein ≥75%) | < 100 nM
C=CC(=O)N1CCc2nc(-c3nc(-c4ccc5c(c4)CCNC5)c4c(F)csc4c3-c3ccc(F)cc3OC)sc2C1 [Compound 274, 1-[2-[3-fluoro-7-(4-fluoro-2-methoxy-phenyl)-4-(1,2,3,4-tetrahydroisoquinolin-6-yl)thieno[3,2-c]pyridin-6-yl]-6,7-dihydro-4H-thiazolo[5,4-c]pyridin-5-yl]prop-2-en-1-one] | A (percent of modification of PIK3CA protein ≥75%) |  | 100 to 1000 nM |  | 
C=CC(=O)N1CCn2nc(-c3nc(-c4ccc5c(c4)CCNC5)c4ccsc4c3-c3ccc(F)cc3OCCOC)nc2C1 [Compound 105, 1-[2-[7-[4-fluoro-2-(2-methoxyethoxy)phenyl]-4-(1,2,3,4-tetrahydroisoquinolin-6-yl)thieno[3,2-c]pyridin-6-yl]-6,8-dihydro-5H-[1,2,4]triazolo[1,5-a]pyrazin-7-yl]prop-2-en-1-one] | A (percent of modification of PIK3CA protein ≥75%) |  | < 100 nM |  | 
C=CC(=O)N1Cc2cc(-c3nc(-c4ccc5ncn(C)c5c4)c4ccsc4c3-c3c(F)cc(F)cc3OCCOC)nn2C[C@H]1C [Compound 689] | A (percent of modification of PIK3CA protein ≥75%) | < 100 nM |  |  | 
C=CC(=O)N1CC(n2cc(-c3nc(-c4cnn(CC5CC5(F)F)c4)c4ccsc4c3-c3ccc(F)cc3OCCOC)cn2)C1 (centres unmarked) [Compound 237] | A (percent of modification of PIK3CA protein ≥75%) | 100 to 1000 nM |  |  | 
C=CC(=O)N1CCc2nc(-c3nc(-c4ccc5c(c4)CCC(N(C)C)C5)c4ccsc4c3-c3ccc(F)cc3OCCOC)sc2C1 (centres unmarked) [Compound 148] | A (percent of modification of PIK3CA protein ≥75%) | < 100 nM |  |  | 

— patent publication US20250230138A1, “COMPOUNDS HAVING A T-STRUCTURE FORMED BY AT LEAST FOUR CYCLES FOR USE IN THE TREATMENT OF CANCER AND OTHER INDICATIONS” (TheRas, Inc., priority 2022, published 2025)
